Laboratory results taken from ChEMBL document CHEMBL1158272, “Novel antiplatelet constituents from formosan moraceous plants” (J Nat Prod, 1996).
≈ marks a conversion by molar mass, not a printed value.

Tests used:
[1] = Antiplatelet activity against rabbit platelets assessed as collagen-induced platelet aggregation at 20 uM by turbidimetric method; assay type: functional, Oryctolagus cuniculus
[2] = Antiplatelet activity against rabbit platelets assessed as platelet-activating facto-induced platelet aggregation at 20 uM by turbidimetric method; assay type: functional, Oryctolagus cuniculus
[3] = Antiplatelet activity against rabbit platelets assessed as thrombin-induced platelet aggregation at 20 uM by turbidimetric method; assay type: functional, Oryctolagus cuniculus
[4] = Antiplatelet activity against rabbit platelets assessed as arachidonic acid-induced platelet aggregation at 20 uM by turbidimetric method; assay type: functional, Oryctolagus cuniculus
[5] = Antiplatelet activity against rabbit platelets assessed as arachidonic acid-induced platelet aggregation at <100 uM by turbidimetric method; assay type: functional, Oryctolagus cuniculus
[6] = Antiplatelet activity against rabbit platelets assessed as platelet-activating facto-induced platelet aggregation at <100 uM by turbidimetric method; assay type: functional, Oryctolagus cuniculus
[7] = Antiplatelet activity against rabbit platelets assessed as thrombin-induced platelet aggregation at <100 uM by turbidimetric method; assay type: functional, Oryctolagus cuniculus
[8] = Antiplatelet activity against rabbit platelets assessed as collagen-induced platelet aggregation at <100 uM by turbidimetric method; assay type: functional, Oryctolagus cuniculus
[9] = Antiplatelet activity against rabbit platelets assessed as collagen-induced platelet aggregation by turbidimetric method; assay type: functional, cell-based; settings: Oryctolagus cuniculus
[10] = Antiplatelet activity against rabbit platelets assessed as arachidonic acid-induced platelet aggregation by turbidimetric method; assay type: functional, cell-based; settings: Oryctolagus cuniculus
[11] = Inhibition of ram seminal vesicle cyclooxygenase pretreated 2 mins before arachidonate substrate addition; assay type: tissue-based, Ovis aries
[12] = Antiplatelet activity against rabbit platelets assessed as arachidonic acid-induced platelet aggregation at 100 uM by turbidimetric method; assay type: functional, Oryctolagus cuniculus
[13] = Antiplatelet activity against rabbit platelets assessed as collagen-induced platelet aggregation at 100 uM by turbidimetric method; assay type: functional, Oryctolagus cuniculus
[14] = Antiplatelet activity against rabbit platelets assessed as platelet-activating facto-induced platelet aggregation at 100 uM by turbidimetric method; assay type: functional, Oryctolagus cuniculus
[15] = Antiplatelet activity against rabbit platelets assessed as thrombin-induced platelet aggregation at 100 uM by turbidimetric method; assay type: functional, Oryctolagus cuniculus
[16] = Antiplatelet activity against rabbit platelets assessed as platelet-activating facto-induced platelet aggregation at 300 uM by turbidimetric method; assay type: functional, Oryctolagus cuniculus
[17] = Antiplatelet activity against rabbit platelets assessed as thrombin-induced platelet aggregation at 300 uM by turbidimetric method; assay type: functional, Oryctolagus cuniculus
[18] = Antiplatelet activity against rabbit platelets assessed as collagen-induced platelet aggregation at 300 uM by turbidimetric method; assay type: functional, Oryctolagus cuniculus
[19] = Antiplatelet activity against rabbit platelets assessed as arachidonic acid-induced platelet aggregation at 300 uM by turbidimetric method; assay type: functional, Oryctolagus cuniculus
[20] = Antiplatelet activity against human platelets in platelet rich plasma assessed as adrenaline-induced platelet aggregation at 300 uM pretreated 3 mins before adrenaline challenge by turbidimetric method; assay type: functional
[21] = Antiplatelet activity against rabbit platelets assessed as collagen-induced platelet aggregation at 60 uM by turbidimetric method; assay type: functional, Oryctolagus cuniculus
[22] = Antiplatelet activity against human platelets in platelet rich plasma assessed as adrenaline-induced platelet aggregation at 450 uM pretreated 3 mins before adrenaline challenge by turbidimetric method; assay type: functional
[23] = Antiplatelet activity against rabbit platelets assessed as arachidonic acid-induced platelet aggregation at 15 uM by turbidimetric method; assay type: functional, Oryctolagus cuniculus
[24] = Antiplatelet activity against rabbit platelets assessed as collagen-induced platelet aggregation at 15 uM by turbidimetric method; assay type: functional, Oryctolagus cuniculus
[25] = Antiplatelet activity against rabbit platelets assessed as platelet-activating facto-induced platelet aggregation by turbidimetric method; assay type: functional, cell-based; settings: Oryctolagus cuniculus
[26] = Antiplatelet activity against rabbit platelets assessed as platelet-activating facto-induced platelet aggregation at 60 uM by turbidimetric method; assay type: functional, Oryctolagus cuniculus
[27] = Antiplatelet activity against rabbit platelets assessed as arachidonic acid-induced platelet aggregation at 30 uM by turbidimetric method; assay type: functional, Oryctolagus cuniculus
[28] = Antiplatelet activity against rabbit platelets assessed as platelet-activating facto-induced platelet aggregation at 30 uM by turbidimetric method; assay type: functional, Oryctolagus cuniculus
[29] = Antiplatelet activity against rabbit platelets assessed as collagen-induced platelet aggregation at 30 uM by turbidimetric method; assay type: functional, Oryctolagus cuniculus
[30] = Antiplatelet activity against rabbit platelets assessed as collagen-induced platelet aggregation at 50 uM by turbidimetric method; assay type: functional, Oryctolagus cuniculus
[31] = Antiplatelet activity against rabbit platelets assessed as platelet-activating facto-induced platelet aggregation at 50 uM by turbidimetric method; assay type: functional, Oryctolagus cuniculus
[32] = Antiplatelet activity against rabbit platelets assessed as arachidonic acid-induced platelet aggregation at 50 uM by turbidimetric method; assay type: functional, Oryctolagus cuniculus
[33] = Antiplatelet activity against human platelets in platelet rich plasma assessed as adrenaline-induced platelet aggregation at 100 uM pretreated 3 mins before adrenaline challenge by turbidimetric method; assay type: functional
[34] = Antiplatelet activity against human platelets in platelet rich plasma assessed as adrenaline-induced platelet aggregation at 150 uM pretreated 3 mins before adrenaline challenge by turbidimetric method; assay type: functional
[35] = Antiplatelet activity against rabbit platelets assessed as thrombin-induced platelet aggregation at 50 uM by turbidimetric method; assay type: functional, Oryctolagus cuniculus
[36] = Antiplatelet activity against human platelets in platelet rich plasma assessed as adrenaline-induced platelet aggregation at 50 uM pretreated 3 mins before adrenaline challenge by turbidimetric method; assay type: functional

COc1cc2oc(-c3ccc(O)cc3O)c(CC=C(C)C)c(=O)c2c(O)c1/C=C/C(C)C [ARTOCARPIN]
Activity [1]: 84% | Activity [2]: 76% | Activity [3]: 87.3% | Activity [4]: 54.8%

CC(=O)Oc1cc2c(cc1OC(C)=O)-c1oc3c(CC=C(C)C)c4c(c(OC(C)=O)c3c(=O)c1C(C=C(C)C)O2)C=CC(C)(C)O4 (stereo unspecified) [CYCLOHETERPHYLLIN PERACETATE]
Activity [5]: 74% | Activity [6]: 78.3% | Activity [7]: 91% | Activity [8]: 73%

COc1ccc2c(c1)OC(C=C(C)C)c1c-2oc2cc(O)c(/C=C/C(C)C)c(O)c2c1=O (stereo unspecified) [CYCLOARTOCARPIN A]
Activity [1]: 60.9% | IC50 [9]: 23.7 µM | Activity [2]: 86.5% | IC50 [10]: 18.5 µM | Activity [3]: 89.9% | Activity [4]: 39.5%

COc1ccc2c(c1)c(CC(=O)O)c(C)n2C(=O)c1ccc(Cl)cc1 [INDOMETHACIN]
IC50 [11]: 0.7 µg/mL (≈ 1.96 µM)

CC(C)=CCc1cc(-c2oc3c(CC=C(C)C)c(O)cc(O)c3c(=O)c2O)ccc1O [BROUSSOFLAVONOL F]
Activity [12]: 0% | IC50 [11]: 17.5 µg/mL (≈ 41.4 µM) | Activity [13]: 0% | IC50 [10]: 16.9 µM | Activity [14]: 84.8% | Activity [15]: 93.1%

COc1cc(O)c2c(c1)O[C@H](c1ccc(O)cc1O)CC2=O [ARTOCARPANONE]
Activity [16]: 38.6% | Activity [17]: 90.2% | IC50 [9]: 90.7 µM | IC50 [10]: 41 µM | Activity [18]: 1.1% | Activity [19]: 0%

CC(=O)Oc1cc(O)c(C(=O)/C=C/c2ccc(OC(C)=O)c(OC(C)=O)c2)cc1CC=C(C)C [BROUSSOCHALCONE TRIACETATE]
Activity [12]: 9.6% | Activity [16]: 0% | Activity [17]: 88.4% | IC50 [10]: 91.7 µM | Activity [14]: 82.1% | Activity [18]: 23.1% | Activity [19]: 9.3%

COc1cc(OC)c([C@@H]2CC(=O)c3c(O)cc(OC)c(CC=C(C)C)c3O2)c(OC)c1
Activity [16]: 84.5% | Activity [17]: 85.7% | Activity [18]: 68.9% | Activity [19]: 81.5%

COc1cc(O)c2c(=O)cc(-c3ccc(O)cc3O)oc2c1CC=C(C)C [ARTOCARPETIN A]
Activity [16]: 59.8% | Activity [17]: 80.4% | Activity [18]: 46.8% | Activity [19]: 61.8%

CC(C)=CCc1cc(C(=O)/C=C/c2ccc(O)c(O)c2)c(O)cc1O [BROUSSOCHALCONE A]
Activity [20]: 74% | Activity [21]: 0% | IC50 [11]: 19.4 µg/mL (≈ 57 µM) | Activity [22]: 40.1% | Activity [23]: 0% | Activity [24]: 55.1% | IC50 [9]: 22.4 µM | IC50 [10]: 6.8 µM | IC50 [25]: 119 µM | Activity [26]: 67.8%

CC(C)=CCc1c(-c2cc(O)c(O)cc2O)oc2c(CC=C(C)C)c3c(c(O)c2c1=O)C=CC(C)(C)O3 [HETEROPHYLLIN]
Activity [12]: 0% | Activity [13]: 0% | IC50 [9]: 48.7 µM | IC50 [10]: 49.8 µM | Activity [14]: 32% | Activity [15]: 80.2%

CC(C)=CCc1c([C@@H]2CCc3ccc(O)cc3O2)cc2c(c1O)OC(C)(C)C(O)C2O (stereo partly specified) [BROUSSOFLAVAN A]
Activity [16]: 87.9% | Activity [17]: 92% | IC50 [10]: 86.7 µM | Activity [18]: 0% | Activity [19]: 0%

CC(C)=CCc1c(-c2oc3c(CC=C(C)C)c(O)cc(O)c3c(=O)c2O)cc(O)c(O)c1CC=C(C)C [BROUSSOFLAVONOL E]
Activity [12]: 0% | Activity [13]: 0% | IC50 [10]: 39.9 µM | Activity [14]: 86.4% | Activity [15]: 91.8%

CC(C)=CCc1cc([C@@H]2CCc3ccc(O)cc3O2)c(CC=C(C)C)c(O)c1O [KAZINOL A]
Activity [27]: 0% | IC50 [9]: 20.7 µM | IC50 [10]: 11.4 µM | Activity [28]: 65.8% | Activity [29]: 0% | IC50 [25]: 54.6 µM

COc1cc(O)c2c(c1)O[C@H](c1c(OC)cc(OC)cc1OC)CC2=O
Activity [16]: 81% | Activity [17]: 83.1% | Activity [18]: 66.1% | Activity [19]: 27.9%

CC(C)=CCc1c([C@@H]2CCc3ccc(O)cc3O2)cc2c(c1O)OC(C)(C)C=C2 [KAZINOL B]
Activity [30]: 4% | Activity [31]: 42.6% | Activity [20]: 23.1% | IC50 [11]: 155.3 µg/mL (≈ 396 µM) | Activity [32]: 0% | Activity [33]: 27.9% | Activity [34]: 27.6% | IC50 [10]: 32.6 µM | Activity [35]: 79.8%

CC(C)=CCc1c2c(c(O)c3c(=O)c4c(oc13)-c1cc(O)c(O)cc1OC4C=C(C)C)C=CC(C)(C)O2 (stereo unspecified) [CYCLOHETERPHYLLIN]
Activity [20]: 35.5% | IC50 [11]: 26.1 µg/mL (≈ 51.9 µM) | Activity [16]: 4.5% | Activity [17]: 82.4% | Activity [33]: 61.6% | Activity [34]: 55.1% | IC50 [10]: 10.9 µM | Activity [18]: 33.8% | Activity [19]: 0%

CC(=O)Oc1cc2c(cc1OC(C)=O)-c1oc3c(CC=C(C)C)c4c(c(O)c3c(=O)c1C(C=C(C)C)O2)C=CC(C)(C)O4 (stereo unspecified) [CYCLOHETERPHYLLIN DIACETATE]
Activity [5]: 83.4% | Activity [6]: 86% | Activity [7]: 91.3% | Activity [8]: 4.9%

COc1cc(O)c2c(=O)cc(-c3ccc(O)cc3O)oc2c1 [ARTOCARPETIN]
Activity [16]: 85.7% | Activity [17]: 88.2% | IC50 [10]: 95.9 µM | Activity [18]: 73.8% | Activity [19]: 0%

CC(=O)Oc1ccccc1C(=O)O [ASPIRIN]
Activity [30]: 85.4% | Activity [31]: 90.5% | Activity [36]: 39.6% | Activity [32]: 0% | Activity [35]: 91.9%

CC(C)=CCc1cc2c(cc1O)O/C(=C\c1ccc(O)c(O)c1)C2=O [BROUSSOAURONE A]
IC50 [11]: 22.7 µg/mL (≈ 67.1 µM) | Activity [16]: 89.5% | Activity [17]: 93.7% | IC50 [10]: 15.4 µM | Activity [18]: 0% | Activity [19]: 0%
